Laboratory results as given in the supplement of paper PMC12463676, “Small-molecule dissolution of stress granules by redox modulation benefits ALS models” (Nature Chemical Biology, 2025).

Experiments:
[1] = compound: O=[As]([O-])(O)O.[K+] [potassium arsenate]; experiment: thermal stability z-score vs DMSO; higher = more thermally stabilized by treatment; conditions: HeLa; arsenate concentration 1 mM
Description: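 Cellular thermal proteome profiling in HeLa cells treated with 1 mM arsenate for 1 h (DMSO pretreatment), heated to ten temperatures (37-66.3 °C). Soluble protein was quantified by TMT mass spectrometry relative to DMSO controls; the thermal stability score was transformed to a z-score; mean of n = 3 experiments.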

[2] = compound: NC(=O)CCCCC1CCSS1 [lipoamide]; experiment: as above; conditions: HeLa, lipoamide concentration 100 µM
Description: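 Cellular thermal proteome profiling in HeLa cells. Cells were treated with 100 µM lipoamide for 1 h, with or without 1 mM arsenate for a further 1 h, then heated to ten temperatures (37-66.3 °C), and soluble protein was quantified by TMT mass spectrometry relative to 0.1% DMSO controls. The thermal stability score (sum of log2 fold changes minus the abundance score) was transformed to a z-score; mean of n = 3 experiments.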

[3] = arsenate co-treatment: 1 mM arsenate 1 h
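Also: each temperature applied for 3 min, abundance score taken as mean log2 fold change at the two lowest temperatures, z-score obtained by mean subtraction and division by SD.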

Chain of UniProt P68366 (P68366 whole entry): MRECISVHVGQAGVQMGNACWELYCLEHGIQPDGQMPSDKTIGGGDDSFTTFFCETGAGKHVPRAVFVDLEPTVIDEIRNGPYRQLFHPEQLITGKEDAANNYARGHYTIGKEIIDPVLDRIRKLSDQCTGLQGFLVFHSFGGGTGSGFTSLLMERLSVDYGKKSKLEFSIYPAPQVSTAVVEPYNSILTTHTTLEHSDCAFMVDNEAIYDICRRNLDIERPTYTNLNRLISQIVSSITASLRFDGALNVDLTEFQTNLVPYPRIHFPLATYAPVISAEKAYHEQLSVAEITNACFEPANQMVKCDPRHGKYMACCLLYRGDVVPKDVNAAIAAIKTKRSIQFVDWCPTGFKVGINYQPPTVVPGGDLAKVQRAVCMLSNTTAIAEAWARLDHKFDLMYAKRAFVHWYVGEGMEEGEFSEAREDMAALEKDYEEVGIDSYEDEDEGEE
Chain of UniProt Q969V5 (Q969V5 whole entry): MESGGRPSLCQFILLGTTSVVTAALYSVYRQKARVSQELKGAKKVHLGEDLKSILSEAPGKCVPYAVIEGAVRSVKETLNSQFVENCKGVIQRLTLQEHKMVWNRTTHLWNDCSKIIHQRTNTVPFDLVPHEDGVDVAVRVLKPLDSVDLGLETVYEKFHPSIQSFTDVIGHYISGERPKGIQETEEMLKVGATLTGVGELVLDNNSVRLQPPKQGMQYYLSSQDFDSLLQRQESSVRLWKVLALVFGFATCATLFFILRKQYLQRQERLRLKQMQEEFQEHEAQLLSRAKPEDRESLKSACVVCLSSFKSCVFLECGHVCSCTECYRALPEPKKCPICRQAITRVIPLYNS
Chain of UniProt P51148 (P51148 whole entry): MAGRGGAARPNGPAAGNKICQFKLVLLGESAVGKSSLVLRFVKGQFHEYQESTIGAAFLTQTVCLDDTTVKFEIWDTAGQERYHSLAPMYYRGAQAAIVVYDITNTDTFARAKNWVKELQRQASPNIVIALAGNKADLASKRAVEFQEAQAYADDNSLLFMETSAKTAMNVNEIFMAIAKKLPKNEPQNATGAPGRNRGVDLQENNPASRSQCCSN
Chain of UniProt P20962 (P20962 whole entry): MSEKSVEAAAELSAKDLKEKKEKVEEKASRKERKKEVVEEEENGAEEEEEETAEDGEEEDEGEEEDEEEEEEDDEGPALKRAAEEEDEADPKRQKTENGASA
Chain of UniProt P58004 (P58004 whole entry): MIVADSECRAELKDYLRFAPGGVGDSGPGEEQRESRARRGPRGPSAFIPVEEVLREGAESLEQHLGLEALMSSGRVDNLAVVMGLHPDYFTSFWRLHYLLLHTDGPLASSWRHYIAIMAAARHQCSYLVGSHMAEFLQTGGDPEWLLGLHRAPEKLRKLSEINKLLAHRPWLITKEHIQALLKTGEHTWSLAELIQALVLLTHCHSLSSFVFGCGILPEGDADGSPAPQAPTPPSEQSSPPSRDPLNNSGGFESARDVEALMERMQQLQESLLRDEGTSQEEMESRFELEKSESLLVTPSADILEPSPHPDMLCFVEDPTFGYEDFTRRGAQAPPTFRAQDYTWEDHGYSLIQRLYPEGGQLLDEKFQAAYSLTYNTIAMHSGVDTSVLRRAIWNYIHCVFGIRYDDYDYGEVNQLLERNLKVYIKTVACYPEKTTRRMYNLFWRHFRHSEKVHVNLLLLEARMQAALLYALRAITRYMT
Chain of UniProt Q9HDC9 (Q9HDC9 whole entry): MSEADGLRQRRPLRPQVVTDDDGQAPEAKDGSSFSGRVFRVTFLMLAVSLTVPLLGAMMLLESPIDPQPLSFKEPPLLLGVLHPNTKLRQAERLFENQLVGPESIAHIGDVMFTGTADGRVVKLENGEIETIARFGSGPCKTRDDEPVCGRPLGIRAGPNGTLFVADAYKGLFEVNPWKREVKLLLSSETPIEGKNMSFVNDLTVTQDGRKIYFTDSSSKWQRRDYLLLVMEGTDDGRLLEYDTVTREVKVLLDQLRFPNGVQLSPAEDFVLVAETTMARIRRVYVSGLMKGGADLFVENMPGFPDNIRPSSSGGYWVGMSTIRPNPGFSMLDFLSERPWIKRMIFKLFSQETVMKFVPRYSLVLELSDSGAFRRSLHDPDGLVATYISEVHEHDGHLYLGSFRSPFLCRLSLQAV
Chain of UniProt O94804 (O94804 whole entry, looked up): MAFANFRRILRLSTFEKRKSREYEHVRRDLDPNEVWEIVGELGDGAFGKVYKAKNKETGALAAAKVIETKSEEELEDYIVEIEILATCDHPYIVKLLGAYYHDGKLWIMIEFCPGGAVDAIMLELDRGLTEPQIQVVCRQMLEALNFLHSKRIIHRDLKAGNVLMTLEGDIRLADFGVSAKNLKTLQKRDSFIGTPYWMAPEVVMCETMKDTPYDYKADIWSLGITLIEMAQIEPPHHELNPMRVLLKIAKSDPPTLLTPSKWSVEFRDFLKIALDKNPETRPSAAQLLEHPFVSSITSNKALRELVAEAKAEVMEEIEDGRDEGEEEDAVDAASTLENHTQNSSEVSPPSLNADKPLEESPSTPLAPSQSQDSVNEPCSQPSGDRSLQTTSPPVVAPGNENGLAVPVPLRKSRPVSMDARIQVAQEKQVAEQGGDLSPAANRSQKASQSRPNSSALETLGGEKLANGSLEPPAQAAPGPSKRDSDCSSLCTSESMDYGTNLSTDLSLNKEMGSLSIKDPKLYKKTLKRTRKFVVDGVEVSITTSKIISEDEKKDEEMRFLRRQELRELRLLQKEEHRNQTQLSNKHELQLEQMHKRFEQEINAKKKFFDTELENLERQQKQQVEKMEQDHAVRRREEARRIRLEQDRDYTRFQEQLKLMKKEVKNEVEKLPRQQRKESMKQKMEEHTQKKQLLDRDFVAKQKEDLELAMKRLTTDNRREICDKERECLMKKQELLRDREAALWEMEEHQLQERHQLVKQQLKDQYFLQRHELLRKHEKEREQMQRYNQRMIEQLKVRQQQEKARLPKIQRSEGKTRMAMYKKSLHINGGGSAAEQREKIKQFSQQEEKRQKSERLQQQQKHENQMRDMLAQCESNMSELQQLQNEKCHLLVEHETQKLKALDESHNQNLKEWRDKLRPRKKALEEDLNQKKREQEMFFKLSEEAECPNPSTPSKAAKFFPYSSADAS
Chain of UniProt P31749 (P31749 whole entry): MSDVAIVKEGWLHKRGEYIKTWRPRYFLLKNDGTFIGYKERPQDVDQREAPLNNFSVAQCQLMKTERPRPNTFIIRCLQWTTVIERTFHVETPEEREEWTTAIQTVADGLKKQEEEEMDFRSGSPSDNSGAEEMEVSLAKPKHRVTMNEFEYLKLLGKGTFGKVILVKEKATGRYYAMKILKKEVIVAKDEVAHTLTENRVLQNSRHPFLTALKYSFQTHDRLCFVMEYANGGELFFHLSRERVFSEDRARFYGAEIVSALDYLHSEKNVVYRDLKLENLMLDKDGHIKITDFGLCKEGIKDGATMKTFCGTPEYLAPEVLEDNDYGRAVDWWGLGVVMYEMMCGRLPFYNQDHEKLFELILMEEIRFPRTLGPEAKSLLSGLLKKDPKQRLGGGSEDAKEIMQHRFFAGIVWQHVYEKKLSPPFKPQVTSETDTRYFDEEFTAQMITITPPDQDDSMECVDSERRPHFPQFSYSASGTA
Chain of UniProt Q8IWB1 (Q8IWB1 whole entry): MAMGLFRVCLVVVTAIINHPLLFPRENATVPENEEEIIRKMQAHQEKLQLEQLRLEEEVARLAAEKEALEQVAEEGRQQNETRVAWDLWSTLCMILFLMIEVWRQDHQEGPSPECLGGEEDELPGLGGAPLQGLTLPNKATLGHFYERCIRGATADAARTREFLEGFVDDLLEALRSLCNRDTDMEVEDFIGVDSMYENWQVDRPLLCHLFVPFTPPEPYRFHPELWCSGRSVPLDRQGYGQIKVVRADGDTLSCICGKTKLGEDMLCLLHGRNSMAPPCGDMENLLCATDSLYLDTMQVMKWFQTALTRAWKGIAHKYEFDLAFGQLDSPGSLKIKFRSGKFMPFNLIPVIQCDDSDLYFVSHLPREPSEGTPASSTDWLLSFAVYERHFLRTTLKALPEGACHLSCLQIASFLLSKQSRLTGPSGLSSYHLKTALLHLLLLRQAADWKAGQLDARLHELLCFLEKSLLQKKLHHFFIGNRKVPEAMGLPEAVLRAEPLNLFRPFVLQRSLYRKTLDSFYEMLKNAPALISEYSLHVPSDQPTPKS
Chain of UniProt P60891 (P60891 whole entry): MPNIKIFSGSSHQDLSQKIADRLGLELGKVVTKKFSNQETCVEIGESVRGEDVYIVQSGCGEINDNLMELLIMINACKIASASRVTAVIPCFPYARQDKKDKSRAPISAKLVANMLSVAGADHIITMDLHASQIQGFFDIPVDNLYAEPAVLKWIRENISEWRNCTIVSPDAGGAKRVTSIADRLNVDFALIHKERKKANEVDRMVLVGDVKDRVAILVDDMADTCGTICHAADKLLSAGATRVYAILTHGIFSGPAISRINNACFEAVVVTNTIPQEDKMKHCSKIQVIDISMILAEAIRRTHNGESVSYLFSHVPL
Chain of UniProt O95297 (O95297 whole entry): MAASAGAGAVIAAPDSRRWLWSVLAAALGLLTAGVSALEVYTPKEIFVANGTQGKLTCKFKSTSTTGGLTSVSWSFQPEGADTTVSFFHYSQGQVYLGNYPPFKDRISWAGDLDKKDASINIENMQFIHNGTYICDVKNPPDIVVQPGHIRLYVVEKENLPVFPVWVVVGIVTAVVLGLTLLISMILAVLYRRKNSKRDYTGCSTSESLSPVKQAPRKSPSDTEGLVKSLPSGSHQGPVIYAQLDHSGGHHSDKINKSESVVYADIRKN
Chain of UniProt Q8IVB5 (Q8IVB5 whole entry): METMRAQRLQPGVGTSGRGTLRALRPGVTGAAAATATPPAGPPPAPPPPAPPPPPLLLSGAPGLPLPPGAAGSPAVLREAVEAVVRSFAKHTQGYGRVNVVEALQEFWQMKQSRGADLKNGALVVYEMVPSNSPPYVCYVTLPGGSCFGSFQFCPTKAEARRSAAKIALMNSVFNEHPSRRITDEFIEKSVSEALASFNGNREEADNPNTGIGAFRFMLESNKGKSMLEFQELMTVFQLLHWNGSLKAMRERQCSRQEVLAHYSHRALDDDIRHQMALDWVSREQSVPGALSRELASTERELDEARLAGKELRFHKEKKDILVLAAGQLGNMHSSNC

| Target | thermal stability z-score [1] | thermal stability z-score [2, 3] | thermal stability z-score ([2]; arsenate co-treatment: none) |
| --- | --- | --- | --- |
| SEC24C (UniProt P53992) | 0.38 | 0.0998 | 0.0631 |
| PTMS (UniProt P20962) | -0.629 | 0.606 | 0.808 |
| EPHA2 (UniProt P29317) | -0.211 | -0.528 | -0.029 |
| GPN1 (UniProt Q9HCN4) | 0.212 | -0.0201 | -0.00238 |
| PPAT (UniProt Q06203) | -0.0713 | 0.306 | 0.28 |
| YBX3 (UniProt P16989) | -0.672 | 0.153 | -0.0445 |
| DHX38 (UniProt Q92620) | -0.406 | -0.164 | 0.0335 |
| CST3 (UniProt P01034) | 0.472 | -0.744 | -0.0182 |
| SESN2 (UniProt P58004) | -0.132 | -0.134 | 0.162 |
| LIX1L (UniProt Q8IVB5) | -0.301 | -0.241 | -0.219 |
| FCHSD2 (UniProt O94868) | -0.184 | -0.0527 | -0.175 |
| FAM111B (UniProt Q6SJ93) | 9.3 | 4.69 | 1.31 |
| MUL1 (UniProt Q969V5) | -2.82 | -0.0704 | -0.261 |
| STK26 (UniProt Q9P289) | 1.4 | 0.681 | 1.24 |
| TMEM186 (UniProt Q96B77) | -0.803 | -1.59 | -0.895 |
| IPO7 (UniProt O95373) | -0.418 | 2.63 | 0.4 |
| LACE1 (UniProt Q8WV93) | -0.0299 | 0.0464 | 0.0601 |
| ACSF2 (UniProt Q96CM8) | -0.301 | -0.634 | -0.524 |
| SNTB2 (UniProt Q13425) | -0.227 | 0.14 | -0.309 |
| RNF216 (UniProt Q9NWF9) | 0.679 | -0.0849 | 0.015 |
| KIAA0319L (UniProt Q8IZA0) | -0.349 | 0.936 | 0.43 |
| ANKFY1 (UniProt Q9P2R3) | 0.477 | 0.069 | 0.106 |
| HDGFRP2 (UniProt Q7Z4V5) | 0.126 | 0.576 | 0.499 |
| WAPL (UniProt Q7Z5K2) | -0.434 | 0.0171 | 0.484 |
| RAB5C (UniProt P51148) | 0.552 | 0.345 | 0.119 |
| PRPS1 (UniProt P60891) | -1.1 | 0.0132 | -0.285 |
| AKT1 (UniProt P31749) | -1.01 | -0.698 | -0.638 |
| VPS13B (UniProt Q7Z7G8) | -0.168 | 0.291 | 0.491 |

| Target | thermal stability z-score [1] | thermal stability z-score [2, 3] | thermal stability z-score ([2]; arsenate co-treatment: none) |
| --- | --- | --- | --- |
| GOT1 (UniProt P17174) | 0.118 | 0.656 | 0.623 |
| VPS50 (UniProt Q96JG6) | 0.134 | -0.564 | -0.541 |
| UBA2 (UniProt Q9UBT2) | -0.426 | -0.378 | -0.166 |
| NFIC (UniProt P08651) | -0.494 | 0.26 | 0.173 |
| MMAB (UniProt Q96EY8) | -0.58 | -1.28 | -1.35 |
| ATP5L (UniProt O75964) | 0.595 | 0.758 | -1.18 |
| TUBA4A (UniProt P68366) | -0.681 | -0.0177 | -0.502 |
| FNDC3B (UniProt Q53EP0) | 3.13 | -0.593 | 0.623 |
| YWHAE (UniProt P62258) | -0.368 | 0.149 | 0.0341 |
| MPZL1 (UniProt O95297) | 0.179 | 0.0579 | 0.206 |
| KIF23 (UniProt Q02241) | -0.0543 | 0.207 | 0.324 |
| MCM6 (UniProt Q14566) | -0.919 | -0.81 | -0.253 |
| CDYL (UniProt Q9Y232) | 0.0814 | 2.68 | 1.28 |
| QDPR (UniProt P09417) | -1.26 | 0.36 | 0.387 |
| CYB5B (UniProt O43169) | 0.322 | 1.05 | 0.411 |
| STAMBPL1 (UniProt Q96FJ0) | 1.05 | 0.417 | 0.511 |
| ARFGAP1 (UniProt Q8N6T3) | 0.357 | -0.303 | 0.304 |
| SERINC3 (UniProt Q13530) | -0.788 | -0.42 | -0.641 |
| APMAP (UniProt Q9HDC9) | 0.179 | 1.33 | 0.655 |
| LTV1 (UniProt Q96GA3) | 1.01 | 0.231 | -0.172 |
| STK10 (UniProt O94804) | 0.146 | -0.201 | -0.0461 |
| ITPRIP (UniProt Q8IWB1) | -0.289 | -0.976 | -0.936 |
| NAA35 (UniProt Q5VZE5) | 0.265 | 0.334 | 0.635 |
| MRPL23 (UniProt Q16540) | 0.525 | 0.205 | 0.755 |
| SRP68 (UniProt Q9UHB9) | 0.344 | -0.606 | -0.27 |
| ZC3H12A (UniProt Q5D1E8) | -0.189 | 0.0783 | -0.187 |
| NIT1 (UniProt Q86X76) | 0.439 | 0.836 | 0.924 |
